# Test results taken from US8183252B2, “Heterocyclic aspartyl protease inhibitors” (Schering Corporation, priority 2007, dated 2012).
# pKi: −log10 of the molar value.
# Target: T1, human BACE1 (sproBACE1) (Homo sapiens, UniProt P56817)
# T1 construct: sBACE1, corresponding to amino acids 1-454; made in house; host or cells: Sf9 insect cells (baculovirus), secreted into the medium
# Experiment: BACE-1 Peptide Hydrolysis Assay (HTRF)
# Type: biochemical
# Conditions: not given
# Procedure, shortened: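 Secreted sBACE1-myc/His from baculovirus-infected sf9 cells, purified on Q-sepharose then Ni-NTA. Substrate-initiated reactions ran 3 hr at 30° C., then were stopped with KF buffer (pH 8.0) containing SA-XL665 for HTRF read-out. EC50 was fitted by sigmoidal dose-response to percent change in ratio.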
# T1 sequence (P56817 22-454): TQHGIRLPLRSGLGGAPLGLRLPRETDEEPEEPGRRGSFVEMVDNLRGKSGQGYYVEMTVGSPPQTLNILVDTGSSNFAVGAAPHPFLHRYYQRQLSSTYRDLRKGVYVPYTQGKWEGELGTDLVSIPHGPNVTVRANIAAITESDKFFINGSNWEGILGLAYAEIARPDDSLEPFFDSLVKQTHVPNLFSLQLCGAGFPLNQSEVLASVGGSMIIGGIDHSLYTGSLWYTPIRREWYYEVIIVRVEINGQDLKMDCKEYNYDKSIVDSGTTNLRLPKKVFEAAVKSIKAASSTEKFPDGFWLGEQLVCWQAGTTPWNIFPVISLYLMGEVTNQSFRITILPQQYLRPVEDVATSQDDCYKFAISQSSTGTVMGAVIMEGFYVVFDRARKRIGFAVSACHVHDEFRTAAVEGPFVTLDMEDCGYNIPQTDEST
row,SMILES,pKi
1,CC(=O)N1CCC(CN2C(=N)NC(C)(c3cccc(-c4cnn(C)c4)c3)C2=O)CC1 (stereo not shown),> 5.30

# Same assay, conditions: read-out: BACE-1 Ki
row,SMILES,pKi
1,CN1C(=N)N[C@](C)(c2csc3c(-c4ccsc4)cccc23)CC1=O,> 5.30
2,CN1C(=N)N[C@](C)(c2cc(-c3ccc(Cl)s3)cs2)CC1=O,> 5.30
3,CC1(c2cccc(-c3cccc(Cl)c3)c2)NC(=N)N(CC2CCN(C(=O)Nc3ccccc3)C2)C1=O (stereo not shown),> 5.30
4,CN1C(=N)N[C@](C)(c2cc(Br)co2)CC1=O,> 5.30
5,CN1C(=N)N[C@](CCC2CCCCC2)(C[C@H]2CCC[C@H](N[C@H]3CCNC3=O)C2)C1=O,> 5.30
6,N=C1NC(c2ccccc2)(c2ccccc2)C(=O)N1C[C@H]1CCCN(S(=O)(=O)C2CC2)C1,> 5.30
7,CN1C(=N)N[C@](C)(c2ccc(-c3cccc(C(F)(F)F)c3)s2)[C@@H](C2CC2)C1=O,> 5.30
8,CCN(CCc1cccc(C2(c3ccccc3)NC(=N)N(C)C2=O)c1)S(C)(=O)=O (racemic),> 5.30
9,CN1C(=N)NC(C)(c2cc(-c3cccc(C#N)c3)cs2)C(CC=Cc2ccccc2)C1=O (stereo not shown),> 5.30
10,CN1C(=N)N[C@](C)(c2cc(-c3cc(Br)cc(C#N)c3)cs2)CC1=O,> 5.30
11,CC1(c2cccc(-c3cccc(Cl)c3)c2)NC(=N)N(CC2CCN(S(=O)(=O)c3ccccc3)C2)C1=O (stereo not shown),> 5.30
12,C[C@@]1(c2ccc3sccc3c2)CC(=O)N(CCO)C(=N)N1,> 5.30
13,"CN1C(=N)NC(C)(c2cccc(-c3cc(Cl)ccc3CNC(=O)Nc3ccccc3)c2)C1=O (stereo not shown) [urea, N-[[5-chloro-3′-(2-imino-1,4-dimethyl-5-oxo-4-imidazolidinyl)[1,1′-biphenyl]-2-yl]methyl]-N′-phenyl-]",> 5.30
14,COc1cncc(-c2csc(C3(C4CC4)NC(=N)N(C)C3=O)c2)c1 (stereo not shown),> 5.30
15,CN1C(=N)NC(c2ccccc2)(c2cc(-c3cccnc3)cs2)C1=O (stereo not shown),> 5.30
16,COc1cccc(-c2cccc(C3(C)NC(=N)N(Cc4cccc(N5CCCCS5(=O)=O)c4)C3=O)c2)c1 (racemic),> 5.30
17,CN1C(=N)N[C@](C)(c2cc(-c3cccc(Cl)c3)ccn2)CC1=O,> 5.30
18,Cc1cc(F)ccc1[C@]1(C)CC(=O)N(C)C(=N)N1,> 5.30
19,CN1C(=N)N[C@](C)(c2cc(Br)c(-c3cncc(Br)c3)s2)CC1=O,> 5.30

row,SMILES,pKi
1,CN1C(=N)N[C@](C)(c2cc(-c3ccncc3)c3sccc3c2)CC1=O,> 5.30
2,CC(C)Oc1cccc(-c2csc([C@]3(C)CC(=O)N(C)C(=N)N3)c2)c1,> 5.30
3,CN1C(=N)N[C@](CCC2CCCCC2)(C[C@H]2CCC[C@@H](NC(=O)c3ccc4ccccc4n3)C2)C1=O,> 5.30
4,CN1C(=N)N[C@](C)(c2cccc(N3CCCC3)c2)CC1=O,> 5.30
5,Cc1c(-c2ccc(F)c(C#N)c2)sc([C@@]2(C)CC(=O)N(C)C(=N)N2)c1Cl,> 5.30
6,CCC[C@H]1C(=O)N(C)C(=N)N[C@]1(C)c1cccc(I)c1,> 5.30
7,CN1C(=N)N[C@](C)(c2ccc3nn(CC4CCCCC4)cc3c2)CC1=O,> 5.30
8,CN1OCC(C)(c2cc(-c3ccc(F)c(C#N)c3)cs2)NC1=N (stereo not shown),> 5.30
9,CN1C(=N)N[C@](CCC2CCCCC2)(C[C@H]2CCC[C@@H](NC(=O)NC(=O)c3ccccc3)C2)C1=O,> 5.30
10,Cc1ccc(N2CCC([C@H]3C(=O)N(C)C(=N)N[C@]3(C)c3cc(-c4cccc(C#N)c4)cs3)CC2)cc1,> 5.30
11,CN1C(=N)N[C@](C)(c2cc(-c3ccc(F)c(C#N)c3)c(F)s2)[C@@H](C2CC2)C1=O,> 5.30
12,CC(C)C1(c2cccc(Br)c2)NC(=N)N(C)C1=O (stereo not shown),> 5.30
13,CN1C(=N)N[C@](C)(c2cnc[nH]2)[C@@H](c2cccc(C(C)(F)F)c2)C1=O,> 5.30
14,CN(C)C(=O)N1CCC([C@H]2C(=O)N(C)C(=N)N[C@]2(C)c2cc(-c3cccc(C#N)c3)cs2)CC1,> 5.30
15,CN1C(=N)NC(c2ccccc2)(c2cccc(NS(C)(=O)=O)c2)C1=O (racemic),> 5.30
16,COc1cccc(-c2cc(F)cc(C3(c4ccccc4)NC(=N)N(C)C3=O)c2)c1 (racemic),> 5.30
17,COCC1CCCN1C(=O)c1cccc(CN2C(=N)NC(C)(c3ccccc3)C2=O)c1 (stereo not shown),> 5.30
18,"N=C1NC(c2cccc(-c3cccc(Cl)c3)c2)(C2CC2)C(=O)N1C1CCCC1 (stereo not shown) [4-imidazolidinone, 5-(3′-chloro[1,1′-biphenyl]-3-yl)-3-cyclopentyl-5-cyclopropyl-2-imino-]",> 5.30
19,CN1C(=N)N[C@](C)(c2nc(-c3cccc(C#N)c3)cs2)CC1=O,> 5.30

# Next, values leading:
row,pKi,SMILES
1,> 5.30,C[C@H]1C(=O)N(C)C(=N)N[C@]1(C)c1cc2ccccc2s1
2,> 5.30,COc1ccc(F)c(-c2cccc(C3(C)CON(C)C(=N)N3)c2)c1 (stereo not shown)
3,> 5.30,CN1C(=N)N[C@](C)(c2cc(-c3ccc(F)c(C#N)c3)cs2)[C@H](C2CCC2)C1=O
4,> 5.30,CN1C(=N)N[C@](C)(c2cccc(-c3ccc4scnc4c3)c2)CC1=O
5,> 5.30,"COc1ccc(S(=O)(=O)N2CCC(CN3C(=N)NC(c4ccccc4)(c4ccccc4)C3=O)CC2)cc1 [piperidine, 4-[(2-imino-5-oxo-4,4-diphenyl-1-imidazolidinyl)methyl]-1-[(4-methoxyphenyl)sulfonyl]-]"
6,> 5.30,N=C1NC(c2ccccc2)(c2ccccc2)C(=O)N1C[C@H]1CCCN(C(=O)C2CC2)C1
7,> 5.30,CN1C(=N)N[C@](C)(c2cnc(-c3cccc(C#N)c3)s2)CC1=O
8,> 5.30,CN1C(=N)NC(c2ccccc2)(c2cc(-c3cccc(C#N)c3)cs2)C1=O (stereo not shown) [3-[5-(2-IMINO-1-METHYL-5-OXO-4-PHENYL-4-IMIDAZOLIDINYL)-3-THIENYL]BENZONITRILE]
9,> 5.30,CC(C)(C)CC(=O)Nc1cccc(CN2C(=N)NC(c3ccccc3)(c3ccccc3)C2=O)c1
10,> 5.30,"CCS(=O)(=O)Nc1ccc(CN2C(=N)NC(c3ccccc3)(c3ccccc3)C2=O)cc1 [ethanesulfonamide, N-[4-[(2-imino-5-oxo-4,4-diphenyl-1-imidazolidinyl)methyl]phenyl]-]"
11,> 5.30,CN1C(=N)NC(C)(c2cccc(N3CCC(C#N)C3)c2)CC1=O (stereo not shown)
12,> 5.30,"N=C1NC(c2cccc(-c3cccc(Cl)c3)c2)(C2CC2)C(=O)N1C1CCOCC1 (stereo not shown) [4-imidazolidinone, 5-(3′-chloro[1,1′-biphenyl]-3-yl)-5-cyclopropyl-2-imino-3-(tetrahydro-2H-pyran-4-yl)-]"
13,> 5.30,Cc1cc([C@]2(C)CC(=O)N(C)C(=N)N2)sc1-c1cccc(OC(F)(F)F)c1
14,> 5.30,CN1C(=N)N[C@](C)(c2cc(-c3cccc(F)c3)c3sccc3c2)CC1=O
15,> 5.30,N=C1NC(c2ccccc2)(c2ccccc2)C(=O)N1CC1CCN(C(=O)Nc2cccc(F)c2)CC1
16,> 5.30,CN1C(=N)N[C@@](c2cccc(-c3cccnc3F)c2)(C2CC2)C1=O
17,> 5.30,CN(c1cccc(CN2C(=N)NC(c3ccccc3)(c3ccccc3)C2=O)c1)S(C)(=O)=O
18,> 5.30,CN1C(=N)N[C@](C)(C[C@H]2CCC[C@@H](Nc3ccc4ccccc4n3)C2)C1=O
19,> 5.30,CN1C(=N)N[C@](C)(c2cc(-c3cccc(Br)c3)ns2)CC1=O
20,> 5.30,CN1C(=N)N[C@](C)(c2cc(-c3ccc(F)c(C#N)c3)cs2)[C@@H](C2CC2)C1=O
21,> 5.30,CN1C(=N)N[C@](C)(c2cc(-c3ccc(F)c(C#N)c3)nn2C)CC1=O
22,> 5.30,CN1C(=N)NC(c2cccc(Br)c2)(C2CCCC2)C1=O (stereo not shown) [5-(3-BROMOPHENYL)-5-CYCLOPENTYL-2-IMINO-3-METHYL-4-IMIDAZOLIDINONE]

row,pKi,SMILES
1,> 5.30,CN1C(=N)NC(c2ccccc2)(c2cccc(-c3cccc(CO)c3)c2)C1=O (stereo not shown)
2,> 5.30,CN1C(=N)N[C@](C)(c2cccc(N3CCCCC3)c2)CC1=O
3,> 5.30,CCCS(=O)(=O)N1CCC[C@H](CN2C(=N)NC(c3ccccc3)(c3ccccc3)C2=O)C1
4,> 5.30,CCCN(CCC)C(=O)CCCCN1C(=N)NC(c2ccccc2)(c2ccccc2)C1=O
5,> 5.30,CN1OCC(C)(c2cccc(-c3cc(Cl)cc(Cl)c3)c2)NC1=N (stereo not shown)
6,> 5.30,CN1C(=N)N[C@](C)(c2cc(-c3cccnc3)cs2)CC1=O
7,> 5.30,N=C1NC(c2ccccc2)(c2ccccc2)C(=O)N1Cc1cccnc1
8,> 5.30,Cc1cc(-c2cccc(C3(C4CC4)NC(=N)N(C)C3=O)c2)ccn1 (stereo not shown)
9,> 5.30,"CN1C(=N)NC(C)(c2cccc(-c3cc(Cl)ccc3CNC(=O)Cc3ccccc3)c2)C1=O (stereo not shown) [benzeneacetamide, N-[[5-chloro-3′-(2-imino-1,4-dimethyl-5-oxo-4-imidazolidinyl)[1,1′-biphenyl]-2-yl]methyl]-]"
10,> 5.30,CN1C(=N)N[C@](C)(C[C@H]2CCC[C@@H](Nc3cnc4ccccc4n3)C2)C1=O
11,> 5.30,CCCn1ncc2ccc([C@]3(C)CC(=O)N(C)C(=N)N3)cc21
12,> 5.30,CN1C(=N)N[C@](C)(c2cc(-c3ccc(F)nc3)c3sccc3c2)CC1=O
13,> 5.30,CCC1(c2cc(-c3cccnc3)cs2)CC(=O)N(C)C(=N)N1 (stereo not shown)
14,> 5.30,"N=C1NC(c2ccccc2)(c2ccccc2)C(=O)N1CC1CCN(S(=O)(=O)c2ccc(F)c(Cl)c2)CC1 [piperidine, 1-[(3-chloro-4-fluorophenyl)sulfonyl]-4-[(2-imino-5-oxo-4,4-diphenyl-1-imidazolidinyl)methyl]-]"
15,> 5.30,CN1C(=N)NC(c2ccccc2)(c2cccc(NS(=O)(=O)c3cccs3)c2)C1=O (racemic)
16,> 5.30,CN1C(=N)N[C@](C)(C[C@H]2CCC[C@@H](Nc3cnccn3)C2)C1=O
17,> 5.30,CN1C(=N)N[C@](C)(c2ccc3c(c2)c(Br)cn3C)CC1=O
18,> 5.30,N=C1NC(c2ccccc2)(c2ccccc2)C(=O)N1Cc1cccc(NC(=O)Cc2cccs2)c1
19,> 5.30,"CCCCS(=O)(=O)Nc1ccc(CN2C(=N)NC(c3ccccc3)(c3ccccc3)C2=O)cc1 [1-butanesulfonamide, N-[4-[(2-imino-5-oxo-4,4-diphenyl-1-imidazolidinyl)methyl]phenyl]-]"
20,> 5.30,N=C1NC(c2ccccc2)(c2ccccc2)C(=O)N1Cc1ccsc1
21,> 5.30,CN1C(=N)N[C@](CCc2ccccc2)(C[C@H]2CCC[C@@H](NC3CCCC3)C2)C1=O
